Data taken from ChEMBL document CHEMBL5727416, “Bicyclic heteroarylaminoalkyl phenyl derivatives as PI3K inhibitors” (2019).

Target: T1, Phosphatidylinositol 4,5-bisphosphate 3-kinase catalytic subunit delta isoform (Homo sapiens, UniProt O00329)
T1 sequence (O00329 whole entry): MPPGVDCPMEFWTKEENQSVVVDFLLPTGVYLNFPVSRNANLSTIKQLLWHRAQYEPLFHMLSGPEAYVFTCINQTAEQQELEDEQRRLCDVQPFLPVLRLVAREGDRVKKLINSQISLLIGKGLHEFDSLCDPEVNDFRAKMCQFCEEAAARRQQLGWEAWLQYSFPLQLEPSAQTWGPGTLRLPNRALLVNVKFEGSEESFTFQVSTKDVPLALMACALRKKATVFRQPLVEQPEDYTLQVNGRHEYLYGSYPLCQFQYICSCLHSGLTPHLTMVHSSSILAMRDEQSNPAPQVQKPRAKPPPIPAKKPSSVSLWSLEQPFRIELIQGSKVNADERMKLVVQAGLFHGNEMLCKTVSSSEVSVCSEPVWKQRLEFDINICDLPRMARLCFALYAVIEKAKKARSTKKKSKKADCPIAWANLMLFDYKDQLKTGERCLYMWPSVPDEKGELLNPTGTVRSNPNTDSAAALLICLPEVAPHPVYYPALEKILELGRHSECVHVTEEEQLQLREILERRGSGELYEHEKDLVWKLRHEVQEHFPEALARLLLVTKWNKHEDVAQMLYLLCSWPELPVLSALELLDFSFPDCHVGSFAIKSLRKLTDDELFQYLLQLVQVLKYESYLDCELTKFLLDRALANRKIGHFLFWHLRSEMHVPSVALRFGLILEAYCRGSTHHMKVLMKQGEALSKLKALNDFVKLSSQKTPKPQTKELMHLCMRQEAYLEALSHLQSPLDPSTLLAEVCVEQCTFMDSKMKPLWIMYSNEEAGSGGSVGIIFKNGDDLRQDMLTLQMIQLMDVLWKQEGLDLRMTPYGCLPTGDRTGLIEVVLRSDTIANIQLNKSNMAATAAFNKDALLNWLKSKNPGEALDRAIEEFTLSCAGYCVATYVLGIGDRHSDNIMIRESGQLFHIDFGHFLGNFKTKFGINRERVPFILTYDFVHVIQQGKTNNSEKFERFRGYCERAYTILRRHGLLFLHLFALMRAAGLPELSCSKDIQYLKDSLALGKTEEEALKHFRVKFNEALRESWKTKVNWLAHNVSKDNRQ
Test: Scintillation Proximity Assay: PI3Kδ:The kinase reaction was conducted in polystyrene 384-well matrix white plate from Thermo Fisher Scientific in a final volume of 25 μL. Inhibitors were first diluted serially in DMSO and added to the plate wells before the addition of other reaction components. The final concentration of DMSO in the assay was 0.5%. The PI3K assays were carried out at room temperature in 20 mM MOPS, pH 6.7, 10 mM MgCl2, 5 mM DTT and CHAPS 0.03%. Reactions were initiated by the addition of ATP, the final reaction mixture consisted of 20 μM PIP2, 20 μM ATP, 0.2 μCi [γ-33P] ATP, 4 nM PI3Kδ. Reactions were incubated for 210 min and terminated by the addition of 40 μL SPA beads suspended in quench buffer: 150 mM potassium phosphate pH 8.0, 20% glycerol. 25 mM EDTA, 400 μM ATP. The final concentration of SPA beads was 1.0 mg/mL. After the plate sealing, plates were shaken overnight at room temperature and centrifuged at 1800 rpm for 10 minutes, the radioactivity of the product was determined by scintillation counting on Topcount (Perkin-Elmer).

- IC50: < 10 nM
Structure (SMILES): N#CCC(C1CCN(c2nc3cccnc3o2)C1)n1cc(-c2ncnc3[nH]ccc23)cn1 (stereo unspecified)
